Where two headings read alike, the source gives them in different places.

Data set [1] can be described thus: Solubility (physicochemical properties, Table 1). The settings on record: room temperature, atmospheric pressure.
In data set [2] the target is T1, EGFR (Epidermal Growth Factor Receptor) (Homo sapiens, UniProt P00533).
T1 construct: purchased CST
The data set can be described thus: Enzyme-linked immunosorbent assay (ELISA), kinase inhibitory activity (phosphorylation of PTP1B(Tyr66) biotinylated peptide substrate). The data set is classed as biochemical. The settings on record: average of two independent parallel experiments. From the text: Protein kinase assay kit: PTP1B(Tyr66) Biotinylated Peptide from CST company is used as a substrate of kinase EGFR (Epidermal Growth Factor Receptor).
For orientation: ELISA stands for enzyme-linked immunosorbent assay.

Data set [3] concerns prostate cancer cell PC-3. The data set can be described thus: Cytotoxicity experiment, SRB method, tumor cell proliferation. The settings on record: PC-3, 48 h, SRB; read-out: IC50 (μmol/L) Prostate cancer cell PC-3. Format: cell-based. On the procedure:
(§1) Human breast cancer cell line (drug-resistant) MCF-7/A, human breast cancer cell line (sensitive) MCF-7/S, prostate cancer cell PC-3, keratinocyte Colo-16, human non-small cell lung cancer cell line A549 and etc. are cultured in RPMI1640 medium (Invitrogen, USA) containing 10 wt % fetal bovine serum (FBS, Hyclone, USA), and epidermal growth factor (EGF) at a concentration of 100 ng/ml is added to stimulate growth. After 2-3 days, cells in logarithmic growth phase are collected, and inoculated at 96 well plates (6500 cells/well/100 ul, RPMI1640 containing 100 ng/mL EGF) for 24 h, and then compound at gradient concentrations (200, 100, 50, 25, 12.5, 6.25, 1 μM/L) are added. The same volume of RPMI1640 containing 1 wt % of dimethyl sulfoxide (DMSO) is used as control group of the experiment; the blank group is only culture medium without cell. Three parallel wells are set up for each concentration group. After incubation is continued for 48 h, the cell survival rate is measured by SRB method. Results are shown in Table 2 and Table 3, respectively.
(§2) Wherein, for experiment on compound cytotoxicity assay by sulforhodamine B (SRB) method: Cells in the logarithmic growth phase are collected and inoculated at 96-well plates (6500 cells/well/100 ul, RPMI1640 containing 100 ng/ml of EGF). After incubation for 24 h, compounds at gradient concentrations (200, 100, 50, 25, 12.5, 6.25, 1 (μM/L)) are added. The same volume of RPMI1640 containing 100 ng/ml of EGF is used as control group of the experiment; the blank group is only culture medium without cell. Three parallel wells are set up for each concentration group. After incubation is continued for 48 h, the cell survival rate is measured by SRB method. 50 μl 10% trichloroacetic acid (TCA) pre-cooled (4° C.) is added to each well, it is fixed for 1 hour at 4° C., washed with water for five times, and completely dried, and then 100 μl of SRB solution (Sigma, USA) at concentration of 0.4% by weight is added, and staining is performed at 37° C. in the dark for 30 min. Wash with acetic acid at a concentration of 1% by weight for 4-5 times, dry in the air, add 200 μl of Tris solution (10 mM, pH 10.5), after sufficiently dissolved, the absorbance (absorption wavelength is 570 nm) is measured in microplate reader.
(§3) The growth inhibition rate (IR) is calculated according to the following formula: IR (%)=[1−(experiment group A value−blank group A value)/(control group A value−blank group A value)]×100%, and the IC50 value is calculated using Origin 6.0 software.
Background: The SRB assay estimates cell density from bound dye.

Data set [4] has as its system human breast cancer cell line (sensitive) MCF-7/S. The data set is described as above. Format: cell-based. The settings on record: 48 h, read-out: IC50 (umol/L) Breast cancer cell (sensitive) MCF-7/S. Here is the method: as §1, §2, §3
The test system of data set [5] is Human breast cancer cell line (drug-resistant) MCF-7/A. The description is as above. Format: cell-based. The settings on record: 48 h, read-out: IC50 (umol/L) Breast cancer cell (drug-resistant) MCF-7/A. Here is the method: as §1, §2, §3
Data set [6] has as its system human non-small cell lung cancer cell line A549. The description is as above. The data set is classed as cell-based. The settings on record: A549, 48 h, read-out: IC50 (μmol/L) Non-small cell lung cancer cell A549. Here is the method:
as §1, §2, §3

In data set [7] the test system is keratinocyte Colo-16. The data set is described as above. Format: cell-based. The settings on record: Colo-16, 48 h, SRB, read-out: IC50 (μmol/L) Keratinocyte Colo-16. Here is the method: as §1, §2, §3
Data set [8] can be described thus: Stability (physicochemical properties, Table 1). The settings on record: for Stability (photostability): light.
The test system of data set [9] is human breast cancer cell line (sensitive) MCF-7/S + EGF. The experiment in a line: Cytotoxicity experiment under the condition of additional EGF, SRB method. The settings on record: MCF-7/S with additional EGF 100 ng/ml, 48 h, SRB, read-out: IC50 (umol/L) Breast cancer cell (sensitive) MCF-7/S + EGF. The data set is classed as cell-based. Here is the method:
Human breast cancer cell line (sensitive) MCF-7/S and human non-small cell lung cancer cell line A549 are cultured in HAM′S/F-12 medium (HyClone, USA) containing 10 wt % fetal bovine serum (FBS, Hyclone, USA), and 100 ng/ml epidermal growth factor (EGF, Sigma, USA) is added to this medium. Cells described above were purchased from Cell Resource Center, Shanghai Institute for Biological Science, CAS, they are placed in a CO2 incubator and used for the experiment 3-5 days later.
as §2, §3

T1 sequence (P00533 25-1210): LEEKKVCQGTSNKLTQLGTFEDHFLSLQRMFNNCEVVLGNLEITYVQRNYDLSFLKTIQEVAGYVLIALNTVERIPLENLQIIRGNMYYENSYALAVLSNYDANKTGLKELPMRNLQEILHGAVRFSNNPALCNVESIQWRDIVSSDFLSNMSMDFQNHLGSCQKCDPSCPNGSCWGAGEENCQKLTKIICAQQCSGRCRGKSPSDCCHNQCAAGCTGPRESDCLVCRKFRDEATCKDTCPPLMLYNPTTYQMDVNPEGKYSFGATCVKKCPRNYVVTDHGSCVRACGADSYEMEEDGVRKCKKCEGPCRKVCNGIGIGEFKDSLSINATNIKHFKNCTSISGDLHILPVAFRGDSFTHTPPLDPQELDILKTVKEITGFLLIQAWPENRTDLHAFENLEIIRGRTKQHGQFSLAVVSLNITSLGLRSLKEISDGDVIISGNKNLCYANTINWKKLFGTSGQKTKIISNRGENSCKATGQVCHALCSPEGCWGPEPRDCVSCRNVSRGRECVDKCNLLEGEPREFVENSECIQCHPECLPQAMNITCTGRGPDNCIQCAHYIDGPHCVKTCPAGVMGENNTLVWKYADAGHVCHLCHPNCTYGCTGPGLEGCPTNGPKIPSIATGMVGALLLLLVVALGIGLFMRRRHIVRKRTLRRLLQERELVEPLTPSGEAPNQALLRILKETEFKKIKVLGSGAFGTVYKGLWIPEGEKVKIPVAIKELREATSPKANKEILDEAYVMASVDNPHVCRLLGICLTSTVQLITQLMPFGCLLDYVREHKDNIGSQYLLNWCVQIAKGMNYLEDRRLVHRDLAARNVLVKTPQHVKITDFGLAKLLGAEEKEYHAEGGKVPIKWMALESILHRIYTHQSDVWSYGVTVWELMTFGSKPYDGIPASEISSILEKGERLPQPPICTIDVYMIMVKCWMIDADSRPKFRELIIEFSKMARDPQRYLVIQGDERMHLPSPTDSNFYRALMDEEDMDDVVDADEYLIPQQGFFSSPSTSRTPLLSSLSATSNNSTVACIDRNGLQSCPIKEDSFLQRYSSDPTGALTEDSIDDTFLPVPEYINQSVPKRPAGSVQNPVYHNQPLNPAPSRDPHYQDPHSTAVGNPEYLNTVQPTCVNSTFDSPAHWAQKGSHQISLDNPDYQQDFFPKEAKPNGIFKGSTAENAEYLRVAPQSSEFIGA

For the compound `COc1cc2ncnc(Nc3ccc(F)c(Cl)c3)c2cc1OCCNCCN` [ZW1001, 6-(2-(2-aminoethylamino)ethoxy)-4-(3-Chloro-4-fluoro-phenylamino)-7-methoxy quinazoline], the “Solubility in DMSO” value in data set [1] is listed as “Highly soluble in DMSO”. Besides, the “Solubility in methanol and ethanol” value in data set [1] was “soluble in water, soluble in methanol”. The Solubility in water result in data set [1] is “slightly”. For the same compound, the IC50 was 0.0046 µM in data set [2]; 38.4 ± 2.36 µmol/L in [3]; 38.34 ± 0.1 µmol/L in data set [4] (Homo sapiens, MCF7S); > 100 µmol/L in [5] (Homo sapiens, MCF7a); 51 ± 1.02 µmol/L in data set [6] (Homo sapiens); > 100 µmol/L in [7] (Keratinocyte). Also, in data set [9] (Homo sapiens, MCF7S), the IC50 was determined as 36.3 ± 5.77 µmol/L. Moreover, the “Stability (in air)” value in [8] is on record as “Stable in air,”. Besides, in [8], the “Stability (photostability)” value is listed as “photostable”.
As to `COc1cc2ncnc(Nc3ccc(F)c(Cl)c3)c2cc1OCCCNCCN` [ZW1002, 6-(3-(2-aminoethylamino)propoxy)-4-(3-Chloro-4-fluoro-phenylamino)-7-methoxy quinazoline], in [1], the “Solubility in DMSO” value is “Highly soluble in DMSO”. In addition, in data set [1], the “Solubility in methanol and ethanol” value is listed as “soluble in water, soluble in methanol”. Moreover, the Solubility in water entry in [1] is on record as “slightly”. Further, the IC50 in [2] was 0.0072 µM; in data set [3], 13.6 ± 0.85 µmol/L; in [4] (Homo sapiens, MCF7S), 16.4 ± 0.62 µmol/L; in data set [5] (Homo sapiens, MCF7a), > 100 µmol/L; in [6] (Homo sapiens), 57.4 ± 1.98 µmol/L; in data set [7] (Keratinocyte) it was 14.5 ± 0.37 µmol/L. In [9] (Homo sapiens, MCF7S), the IC50 amounted to 15.9 ± 1.15 µmol/L. In addition, the “Stability (in air)” value in [8] is on record as “Stable in air,”. Further, in data set [8], the “Stability (photostability)” value is “photostable”.
For `COc1cc2ncnc(Nc3ccc(F)c(Cl)c3)c2cc1OCC[N]1CC[NH][Ru+]1([Cl])[c]1cc(C(C)C)ccc1C.F[P-](F)(F)(F)(F)F` (stereo not drawn) [ZW2001], the “Solubility in DMSO” value in [1] is “Highly soluble in DMSO”. In addition, the “Solubility in methanol and ethanol” value in data set [1] is on record as “soluble in water, soluble in methanol”. Also, the Solubility in water entry in [1] is on record as “slightly”. Further, the IC50 in data set [2] was 0.081 µM; in data set [3] it was > 100 µmol/L; in [4], > 100 µmol/L; in data set [5], > 100 µmol/L; in data set [6], > 100 µmol/L; in data set [7] it was 42.8 ± 2.46 µmol/L. Also, the IC50 in data set [9] worked out at 56.1 ± 2.66 µmol/L. In addition, the “Stability (in air)” value in [8] was “Stable in air,”. Further, the “Stability (photostability)” value in [8] is recorded as “photostable”.
With `COc1cc2ncnc(Nc3ccc(F)c(Cl)c3)c2cc1OCC[N]1CC[NH][Ru+]1([Cl])[c]1cccc(-c2ccccc2)c1.F[P-](F)(F)(F)(F)F` (stereo not drawn) [ZW2003], the “Solubility in DMSO” value in data set [1] is listed as “Highly soluble in DMSO”. For the same compound, the “Solubility in methanol and ethanol” value in [1] is on record as “soluble in water, soluble in methanol”. Besides, in data set [1], the Solubility in water entry is reported as “slightly”. In addition, the IC50 in data set [2] is 0.126 µM; in [3], 81.3 ± 6.94 µmol/L; in [4] it was 79.1 ± 11.6 µmol/L; in [5], > 100 µmol/L; in data set [6], > 100 µmol/L; in data set [7], 54.2 ± 4.98 µmol/L. Besides, the IC50 in data set [9] was found to be 28.7 ± 8.75 µmol/L. Also, the “Stability (in air)” value in data set [8] is “Stable in air,”. Further, the “Stability (photostability)” value in [8] was “photostable”.
Regarding `COc1cc2ncnc(Nc3ccc(F)c(Cl)c3)c2cc1OCCC[N]1CC[NH][Ru+]1([Cl])[c]1cccc(-c2ccccc2)c1.F[P-](F)(F)(F)(F)F` (stereo not drawn) [ZW2006], the “Solubility in DMSO” value in data set [1] was “Highly soluble in DMSO”. The “Solubility in methanol and ethanol” value in data set [1] is given as “soluble in water, soluble in methanol”. Moreover, the Solubility in water result in [1] is “slightly”. Also, the IC50 in data set [2] was 0.0762 µM; in data set [3], 43.8 ± 3.9 µmol/L; in [4], 48.8 ± 7.82 µmol/L; in [5] it was > 100 µmol/L; in data set [6], > 100 µmol/L; in data set [7], 55.8 ± 1.55 µmol/L. For the same compound, the IC50 in data set [9] turned out to be 21.7 ± 7.44 µmol/L. In [8], the “Stability (in air)” value is reported as “Stable in air,”. Further, in data set [8], the “Stability (photostability)” value is “photostable”.

The values are drawn from patent US9233995B2, “Quinazoline derivatives and quinazoline complex protein kinase inhibitor for inhibiting multiplication of tumor cells and preparation method thereof” (INSTITUTE OF CHEMISTRY, CHINESE ACADEMY OF SCIENCES, priority 2010, dated 2016).
